The target in this assay is T1, cellular PARG (Homo sapiens, UniProt Q86W56).
T1 construct: endogenous in cells; host or cells: HeLa
The assay can be described thus: Nuclear PAR accumulation assay (immunofluorescence high-content imaging, MMS-treated HeLa cells). It counts as cell-based. Particulars: 1 hour compound then MMS 50 μg/mL for an additional hour. The procedure, abridged: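 HeLa cells pretreated with compound for 1 h at 37° C, then given 50 μg/mL MMS for another hour. After methanol fixation, PAR was immunostained with DAPI nuclear counterstain; per-nucleus intensity and percent PAR-positive cells were imaged at 20× (≥1,000 cells/well). IC50 from four-parameter logistic fit.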

T1 sequence (Q86W56 whole entry): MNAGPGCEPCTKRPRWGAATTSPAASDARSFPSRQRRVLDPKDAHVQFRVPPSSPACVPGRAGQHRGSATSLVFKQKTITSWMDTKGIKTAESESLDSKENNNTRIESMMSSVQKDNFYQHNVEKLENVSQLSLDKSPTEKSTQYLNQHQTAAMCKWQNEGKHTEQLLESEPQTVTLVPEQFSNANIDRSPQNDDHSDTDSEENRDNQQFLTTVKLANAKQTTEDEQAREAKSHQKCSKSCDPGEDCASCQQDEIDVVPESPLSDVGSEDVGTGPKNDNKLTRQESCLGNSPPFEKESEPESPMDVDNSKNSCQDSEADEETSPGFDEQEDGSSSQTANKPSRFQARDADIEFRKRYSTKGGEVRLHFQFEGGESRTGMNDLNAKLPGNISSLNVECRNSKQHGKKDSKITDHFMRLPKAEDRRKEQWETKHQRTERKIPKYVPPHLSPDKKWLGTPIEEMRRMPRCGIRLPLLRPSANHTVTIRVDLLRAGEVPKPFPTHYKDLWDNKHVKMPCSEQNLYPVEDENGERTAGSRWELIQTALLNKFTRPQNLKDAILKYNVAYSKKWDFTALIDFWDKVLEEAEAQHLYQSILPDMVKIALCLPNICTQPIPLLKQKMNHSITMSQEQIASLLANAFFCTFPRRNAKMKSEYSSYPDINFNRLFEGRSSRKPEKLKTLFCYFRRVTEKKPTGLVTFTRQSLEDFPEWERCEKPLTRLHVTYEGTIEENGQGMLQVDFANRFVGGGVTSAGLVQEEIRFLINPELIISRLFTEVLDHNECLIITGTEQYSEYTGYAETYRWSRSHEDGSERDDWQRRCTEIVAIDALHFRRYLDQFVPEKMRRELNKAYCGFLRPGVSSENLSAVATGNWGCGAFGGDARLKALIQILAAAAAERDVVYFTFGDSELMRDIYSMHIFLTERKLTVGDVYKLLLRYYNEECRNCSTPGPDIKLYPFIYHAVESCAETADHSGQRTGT

`Cn1cc(CN2C(=O)c3cc(S(=O)(=O)NC4(C)CC4)ccc3N3C2=NCC3COc2cccc(C#N)c2)cn1` (stereo not shown) [Example 136, 1-((3-cyanophenoxy)methyl)-4-((1-methyl-1H-pyrazol-4-yl)methyl)-N-(1-methylcyclopropyl)-5-oxo-1,2,4,5-tetrahydroimidazo[1,2-a]quinazoline-7-sulfonamide] displayed a half-maximal inhibitory concentration (IC50) of less than 100 nM.

In turn, `Cn1cc(CN2C(=O)c3cc(S(=O)(=O)NC4(C)CC4)ccc3N3C2=NCC3COc2ccccc2C#N)cn1` (stereo not shown) [Example 137, 1-((2-cyanophenoxy)methyl)-4-((1-methyl-1H-pyrazol-4-yl)methyl)-N-(1-methylcyclopropyl)-5-oxo-1,2,4,5-tetrahydroimidazo[1,2-a]quinazoline-7-sulfonamide] had a half-inhibitory concentration (IC50) of 100 to 1000 nM. As for `Cn1cc(CN2C(=O)c3cc(S(=O)(=O)NC4(C)CC4)ccc3N3C2=NCC3COc2cccc(Cl)c2)cn1` (stereo not shown) [Example 138, 1-((3-chlorophenoxy)methyl)-4-((1-methyl-1H-pyrazol-4-yl)methyl)-N-(1-methylcyclopropyl)-5-oxo-1,2,4,5-tetrahydroimidazo[1,2-a]quinazoline-7-sulfonamide], the IC50 is 100 to 1000 nM. Compound `C[C@@H]1CN=C2N(CC(F)F)C(=O)c3cc(S(=O)(=O)NC4(C)CC4)ccc3N21` [Example 139, (R)-4-(2,2-difluoroethyl)-1-methyl-N-(1-methylcyclopropyl)-5-oxo-1,2,4,5-tetrahydroimidazo[1,2-a]quinazoline-7-sulfonamide] showed a half-inhibitory concentration (IC50) of 100 to 1000 nM. `Cn1cc(CN2C(=O)c3cc(S(=O)(=O)NC4(C)CC4)ccc3N3C2=NC[C@H]3C#Cc2cnn(C)n2)cn1` [Example 140, (R)-4-((1-methyl-1H-pyrazol-4-yl)methyl)-1-((2-methyl-2H-1,2,3-triazol-4-yl)ethynyl)-N-(1-methylcyclopropyl)-5-oxo-1,2,4,5-tetrahydroimidazo[1,2-a]quinazoline-7-sulfonamide] registered an IC50 of less than 100 nM. Under `Cn1cc(CN2C(=O)c3cc(S(=O)(=O)NC4(C)CC4)ccc3N3C2=NC[C@H]3COc2ccn(C)n2)cn1` [Example 141, (S)-1-(((1-methyl-1H-pyrazol-3-yl)oxy)methyl)-4-((1-methyl-1H-pyrazol-4-yl)methyl)-N-(1-methylcyclopropyl)-5-oxo-1,2,4,5-tetrahydroimidazo[1,2-a]quinazoline-7-sulfonamide] stands 100 to 1000 nM; under `CN1C(=O)c2cc(S(=O)(=O)NC3(C)CC3)ccc2N2C1=NC[C@H]2C#Cc1ccc2nn(C)cc2c1` [Example 142, (R)-4-methyl-1-((2-methyl-2H-indazol-5-yl)ethynyl)-N-(1-methylcyclopropyl)-5-oxo-1,2,4,5-tetrahydroimidazo[1,2-a]quinazoline-7-sulfonamide], less than 100 nM; under `Cn1cc(CN2C(=O)c3cc(S(=O)(=O)NC4(C)CC4)ccc3N3C2=NCC3COc2ccc(Cl)cc2)cn1` (stereo not shown) [Example 143, 1-((4-chlorophenoxy)methyl)-4-((1-methyl-1H-pyrazol-4-yl)methyl)-N-(1-methylcyclopropyl)-5-oxo-1,2,4,5-tetrahydroimidazo[1,2-a]quinazoline-7-sulfonamide], 100 to 1000 nM. Under `Cn1cc(CN2C(=O)c3cc(S(=O)(=O)NC4(C)CC4)ccc3N3C2=NC[C@H]3c2ccccc2)cn1` [Example 144, (R)-4-((1-methyl-1H-pyrazol-4-yl)methyl)-N-(1-methylcyclopropyl)-5-oxo-1-phenyl-1,2,4,5-tetrahydroimidazo[1,2-a]quinazoline-7-sulfonamide] stands less than 100 nM. Consider `Cn1cc(CN2C(=O)c3cc(S(=O)(=O)NC4(C)CC4)ccc3N3C2=N[C@H]2CCCC[C@H]23)cn1` [Example 145, (7aS,11aR)-6-((1-methyl-1H-pyrazol-4-yl)methyl)-N-(1-methylcyclopropyl)-5-oxo-5,6,7a,8,9,10,11,11a-octahydrobenzo[4,5]imidazo[1,2-a]quinazoline-3-sulfonamide], for which the IC50 was less than 100 nM. `C[C@@H]1CN=C2N(Cc3cnn(C)c3)C(=O)c3cc(S(=O)(=O)NC4(C)CC4)cc(N4CC(C)(C#N)C4)c3N21` [Example 146, (R)-9-(3-cyano-3-methylazetidin-1-yl)-1-methyl-4-((1-methyl-1H-pyrazol-4-yl)methyl)-N-(1-methylcyclopropyl)-5-oxo-1,2,4,5-tetrahydroimidazo[1,2-a]quinazoline-7-sulfonamide]: the half-maximal inhibitory concentration (IC50) is 1000 to 10000 nM. `CN1C(=O)c2cc(S(=O)(=O)NC3(C)CC3)ccc2N2C1=NC[C@H]2C#Cc1ccc2cn(C)nc2c1` [Example 147, (R)-4-methyl-1-((2-methyl-2H-indazol-6-yl)ethynyl)-N-(1-methylcyclopropyl)-5-oxo-1,2,4,5-tetrahydroimidazo[1,2-a]quinazoline-7-sulfonamide] came in with a concentration for half-maximal inhibition (IC50) of less than 100 nM. `CN1C(=O)c2cc(S(=O)(=O)NC3(C)CC3)ccc2N2C1=NC[C@H]2C#Cc1ccc2c(cnn2C)c1` [Example 148, (R)-4-methyl-1-((1-methyl-1H-indazol-5-yl)ethynyl)-N-(1-methylcyclopropyl)-5-oxo-1,2,4,5-tetrahydroimidazo[1,2-a]quinazoline-7-sulfonamide] showed a 50% inhibitory concentration (IC50) of less than 100 nM. Under `CN1C(=O)c2cc(S(=O)(=O)NC3(C)CC3)ccc2N2C1=NC[C@H]2C#Cc1cnc2cccnn12` [Example 149, (R)-1-(imidazo[1,2-b]pyridazin-3-ylethynyl)-4-methyl-N-(1-methylcyclopropyl)-5-oxo-1,2,4,5-tetrahydroimidazo[1,2-a]quinazoline-7-sulfonamide] stands less than 100 nM; under `Cn1cc(CN2C(=O)c3cc(S(=O)(=O)NC4(C)CC4)ccc3N3C2=NCC3COc2ccon2)cn1` (stereo not shown) [Example 150, 1-((isoxazol-3-yloxy)methyl)-4-((1-methyl-1H-pyrazol-4-yl)methyl)-N-(1-methylcyclopropyl)-5-oxo-1,2,4,5-tetrahydroimidazo[1,2-a]quinazoline-7-sulfonamide], less than 100 nM. In turn, `Cn1cc(CN2C(=O)c3cc(S(=O)(=O)NC4(C)CC4)ccc3N3C2=NCC3COc2ccccc2F)cn1` (stereo not shown) [Example 151, 1-((2-fluorophenoxy)methyl)-4-((1-methyl-1H-pyrazol-4-yl)methyl)-N-(1-methylcyclopropyl)-5-oxo-1,2,4,5-tetrahydroimidazo[1,2-a]quinazoline-7-sulfonamide] displayed an IC50 of less than 100 nM. The compound `CN(C)C1(C#C[C@@H]2CN=C3N(CC4(F)CC4)C(=O)c4cc(S(=O)(=O)NC5(C)CC5)ccc4N32)CC1` [Example 152, (R)-1-((1-(dimethylamino)cyclopropyl)ethynyl)-4-((1-fluorocyclopropyl)methyl)-N-(1-methylcyclopropyl)-5-oxo-1,2,4,5-tetrahydroimidazo[1,2-a]quinazoline-7-sulfonamide] registered an IC50 of less than 100 nM.

On to `C#C[C@@H]1CN=C2N(Cc3cnc(C)o3)C(=O)c3cc(S(=O)(=O)NC4(C)CC4)ccc3N21` [Example 153, (R)-1-ethynyl-N-(1-methylcyclopropyl)-4-((2-methyloxazol-5-yl)methyl)-5-oxo-1,2,4,5-tetrahydroimidazo[1,2-a]quinazoline-7-sulfonamide], for which the half-maximal inhibitory concentration (IC50) was less than 100 nM. As for `Cn1cc(CN2C(=O)c3cc(S(=O)(=O)NC4(C)CC4)ccc3N3C[C@H](COCc4ccccc4)N=C23)cn1` [Example 154, (R)-2-((benzyloxy)methyl)-4-((1-methyl-1H-pyrazol-4-yl)methyl)-N-(1-methylcyclopropyl)-5-oxo-1,2,4,5-tetrahydroimidazo[1,2-a]quinazoline-7-sulfonamide], the IC50 is less than 100 nM. The result for `Cn1cc(CN2C(=O)c3cc(S(=O)(=O)NC4(C)CC4)ccc3N3C[C@H](c4ccccc4)N=C23)cn1` [Example 155, (S)-4-((1-methyl-1H-pyrazol-4-yl)methyl)-N-(1-methylcyclopropyl)-5-oxo-2-phenyl-1,2,4,5-tetrahydroimidazo[1,2-a]quinazoline-7-sulfonamide] reads less than 100 nM; that for `C#C[C@H]1CN2C(=N1)N(Cc1cnn(C)c1)C(=O)c1cc(S(=O)(=O)NC3(C)CC3)ccc12` [Example 156, (S)-2-ethynyl-4-((1-methyl-1H-pyrazol-4-yl)methyl)-N-(1-methylcyclopropyl)-5-oxo-1,2,4,5-tetrahydroimidazo[1,2-a]quinazoline-7-sulfonamide], 100 to 1000 nM. Consider `Cn1cc(CN2C(=O)c3cc(S(=O)(=O)NC4(C)CC4)ccc3N3C2=N[C@H]2CCOC[C@H]23)cn1` [Example 157, (7aS,1laS)-6-((1-methyl-1H-pyrazol-4-yl)methyl)-N-(1-methylcyclopropyl)-5-oxo-6,7a,8,9,11,11a-hexahydro-5H-pyrano[4′,3′:4,5]imidazo[1,2-a]quinazoline-3-sulfonamide], for which the IC50 was less than 100 nM. For `Cn1cc(CN2C(=O)c3cc(S(=O)(=O)NC4(C)CC4)ccc3N3C2=N[C@H]2COCC[C@H]23)cn1` [Example 158, (7aR,11aR)-6-((1-methyl-1H-pyrazol-4-yl)methyl)-N-(1-methylcyclopropyl)-5-oxo-5,6,7a,10,11,11a-hexahydro-8H-pyrano[3′,4′:4,5]imidazo[1,2-a]quinazoline-3-sulfonamide], the IC50 is 100 to 1000 nM. `Cn1cc(CN2C(=O)c3cc(S(=O)(=O)NC4(C)CC4)ccc3N3C2=N[C@H]2CNCC[C@H]23)cn1` [Example 159, (7aS,11aR)-6-((1-methyl-1H-pyrazol-4-yl)methyl)-N-(1-methylcyclopropyl)-5-oxo-5,6,7a,8,9,10,11,11a-octahydropyrido[3′,4′:4,5]imidazo[1,2-a]quinazoline-3-sulfonamide]: the 50% inhibitory concentration (IC50) fell in the range of 1000 to 10000 nM. In turn, `Cn1cc(CN2C(=O)c3cc(S(=O)(=O)NC4(C)CC4)ccc3N3C2=N[C@H]2CCNC[C@H]23)cn1` [Example 160, (7aS,11aR)-6-((1-methyl-1H-pyrazol-4-yl)methyl)-N-(1-methylcyclopropyl)-5-oxo-5,6,7a,8,9,10,11,11a-octahydropyrido[4′,3′:4,5]imidazo[1,2-a]quinazoline-3-sulfonamide] had a concentration for half-maximal inhibition (IC50) of 100 to 1000 nM.

One may read the IC50 as the concentration at which inhibition is half-maximal.

Values taken from patent US20260285875A1, “INHIBITORS OF PARG” (858 Therapeutics, Inc., priority 2023, published 2026).
